Data set [1] deals with human smooth muscle cells. Description: Cladribine Example, PDGF-stimulated cell proliferation (cell count), smooth muscle cells. The format is cell-based. To be noted: from the IC50 values. The protocol: To assess the ability of cladribine to prevent cell proliferation, human smooth muscle or endothelial cells (Clonetics, Walkersville, Md.) were seeded at a density of 2000 cells/cm^2 (approximately 3600 cells/well) into each well of 12-well plates and cultured with 1.5 ml of growth medium containing five percent fetal calf serum (FCS). After twenty-four hours, the growth medium was changed and fresh medium containing 10 ng/ml platelet-derived growth factor AB (PDGF AB; LIFE Technologies), as well as various concentrations of cladribine (0.001-10,000 nM) were added with triplicate wells. Medium was replaced with fresh cladribine-containing medium after three days. On day six, cells were detached by trypsinization to yield a cell suspension, lightly centrifuged to pellet and then counted manually using a Neubauer hemocytometer system. Cell viability was assessed by trypan blue exclusion.

The subject of data set [2] is human coronary artery smooth muscle cells. Description: Anti-proliferative activity in non-synchronized cultured human coronary artery smooth muscle cells stimulated with two percent fetal bovine serum. Format: cell-based. Particulars: for effect on the anti-proliferative rapamycin dose response curve: agent added to rapamycin-treated non-synchronized cells, mycophenolic acid zero to one thousand nanomolar, cladribine zero to nine hundred nanomolar. From the text:
The multiple curves represent various concentrations of mycophenolic acid ranging from zero to one thousand nanomolar concentrations.
FIG. 58 illustrates, in graphical format, the anti-proliferative activity of cladribine in non-synchronized cultured human coronary artery smooth muscle cells stimulated with two percent fetal bovine serum.
The multiple curves represent various concentrations of cladribine ranging from zero to nine hundred nanomolar concentrations.

The nature of data set [3]: In vivo release kinetics from rapamycin/cladribine EVA/BMA coating on Bx Velocity stents, Yorkshire pigs. More on the design: species or system porcine. To be noted: 600 microgram basecoat, 200 microgram BMA topcoat.
Text: (§1) The basecoat is applied to Bx Velocity® stents and implanted into Yorkshire pigs.
as §1

The subject of data set [4] is human coronary artery smooth muscle cells. Description: Anti-proliferative activity in synchronized cultured human coronary artery smooth muscle cells stimulated with two percent fetal bovine serum. Format: cell-based. Particulars: for effect on the anti-proliferative rapamycin dose response curve: agent added to rapamycin-treated synchronized cells, topotecan to 300 nanomolar, etoposide to eight hundred nanomolar, Panzem to 100 micromolar. An excerpt:
(§2) The multiple curves represent various concentrations of topotecan ranging from zero to three hundred nanomolar concentrations.
(§3) The multiple curves represent various concentrations of etoposide ranging from zero to eight hundred nanomolar concentrations.
The multiple curves represent various concentrations of Panzem® ranging from zero to 100 micromolar concentrations.

For the next data set, the system named is cell viability. Kind of data set: Cell viability assay. Format: cell-based.
Text: as §2, §3

Data set [5] deals with human coronary artery smooth muscle cell survival. Particulars: 6.6 nanomolar to 30,000.00 nanomolar. From the text: In vitro cytotoxicity tests or assays may be utilized to determine if drugs, agents and/or compounds are potentially toxic and the level of toxicity. Essentially, in vitro cytotoxicity assays determine acute necrotic effects by a drug causing direct cellular damage. The idea behind these assays is that toxic chemicals affect basic functions of cells which are common to all cells. […] There are a number of different assays that may be utilized. In the present invention, the cytotoxicity assay utilized is based upon the measurement of cellular metabolic activity. A reduction in metabolic activity is an indication of cellular damage. Tests that can measure metabolic function measure cellular ATP levels or mitochondrial activity via MTS metabolism. FIG. 69 is a graphical representation of the results of an MTS assay of Panzem®.

The nature of data set [6]: Liquid formulations of sirolimus with PEG 200, ethanol and water; concentrations by liquid chromatography. Format: physicochemical. To be noted: 4 mg/ml formulation with PEG 200, ethanol and water. An excerpt: In accordance with exemplary embodiments of the present invention, a series of liquid formulations were developed for the local or regional delivery of water insoluble compounds such as sirolimus and its analogs, including CCl-779, ABT-578 and everolimus, through weeping balloons and catheter injection needles. […] These liquid formulations increase the apparent solubility of the pharmacologically active but water insoluble compounds by two to four orders of magnitude as compared to the solubility limits of the compounds in water. These liquid formulations rely on the use of a very small amount of organic solvents such as Ethanol (typically less than two percent) and a larger amount of safe amphiphilic (of or relating to a molecule having a polar, water soluble group attached to a non-polar, water insoluble […]) excipients such as polyethylene glycol (PEG 200, PEG 400) and vitamin E TPGS to enhance the solubility of the compounds. These liquid formulations of highly water insoluble compounds are stable and readily flowable at room temperature. Certain excipients, such as Vitamin E TPGS and BHT may be utilized to enhance the storage stability of sirolimus compounds through their anti-oxidation properties. […]

The nature of data set [7]: In vivo release kinetics from rapamycin/mycophenolic acid EVA/BMA coating, porcine pharmacokinetics studies. Particulars: 180 micrograms each of rapamycin and mycophenolic acid in 600 microgram basecoat, with or without BMA topcoat.
In a further data set the test system is tumor cell lines. To be noted: cited from earlier work.
For data set [8], the system named is human coronary artery smooth muscle cell proliferation. Description: In vitro cell culture study of coronary artery smooth muscle cell proliferation. The format is cell-based. From the text: FIG. 51 is a graph of the inhibition of coronary artery smooth muscle cells by trichostatin A in a cell culture study.

The structures appear in SMILES notation.

`Nc1nc(Cl)nc2c1ncn2[C@H]1C[C@H](O)[C@@H](CO)O1` [Cladribine, 2-chlorodeoxyadenosine]: the “potency on smooth muscle cells relative to endothelial cells” value in data set [1] is recorded as “approximately twice as potent”. Further, the “effect on the anti-proliferative rapamycin dose response curve” value (from here on “effect”) in data set [2] is given as “potentiate the anti-proliferative activity of rapamycin”. For the same compound, the “inhibition of human coronary artery smooth muscle cell proliferation” value in data set [2] (non-synchronized cells, two percent fetal bovine serum) was “completely inhibits”. Moreover, the “in vivo elution from EVA/BMA basecoat compared with rapamycin” value in [3] is “elutes more rapidly than rapamycin”.

On to `COc1cc([C@@H]2c3cc4c(cc3[C@@H](O[C@@H]3O[C@@H]5CO[C@@H](C)O[C@H]5[C@H](O)[C@H]3O)[C@H]3COC(=O)[C@H]23)OCO4)cc(OC)c1O` [Etoposide, etoposide], for which the “effect” value in data set [4] is recorded as “potentiate the anti-proliferative activity of rapamycin”. For the same compound, the “cytotoxicity in cell viability assay” value with cell viability (concentrations up to ten micromolar) is “non-cytotoxic”.

For `COc1cc2c(cc1O)CC[C@@H]1[C@@H]2CC[C@]2(C)[C@@H](O)CC[C@@H]12` [Panzem®, 2-methoxyestradiol], the “cytotoxicity (MTS assay)” value in [5] was “do not reduce human coronary artery smooth muscle cell survival”. Further, the “effect” value in data set [4] is on record as “increases the percent of inhibition of rapamycin alone”. For the same compound, in [4] (synchronized cells, two percent fetal bovine serum), the anti-proliferative activity alone result was “extremely effective inhibitor”.

On to `CO[C@H]1C[C@@H]2CC[C@@H](C)[C@@](O)(O2)C(=O)C(=O)N2CCCC[C@H]2C(=O)O[C@H]([C@H](C)C[C@@H]2CC[C@@H](O)[C@H](OC)C2)CC(=O)[C@H](C)/C=C(\C)[C@@H](O)[C@@H](OC)C(=O)[C@H](C)C[C@H](C)/C=C/C=C/C=C/1C` [Rapamycin, rapamycin], for which, in data set [6], the “concentration relative to the solubility of sirolimus in water” value is “about four hundred to about one thousand times higher”.

For the compound `CC[C@@]1(O)C(=O)OCc2c1cc1n(c2=O)Cc2cc3c(CN(C)C)c(O)ccc3nc2-1` [Topotecan, topotecan], the “effect” value in data set [4] is “potentiate the anti-proliferative activity of rapamycin”. Also, the “cytotoxicity in cell viability assay” value with cell viability (concentrations up to one micromolar) is on record as “non-cytotoxic”.

As for `COc1c(C)c2c(c(O)c1C/C=C(\C)CCC(=O)O)C(=O)OC2` [mycophenolic acid], the “effect” value in data set [2] is “potentiates the anti-proliferative activity of rapamycin”. In data set [7], the “in vivo elution from EVA/BMA basecoat compared with rapamycin” value is “elutes more completely over a shorter duration than the rapamycin”.

`CC(/C=C/C(=O)NO)=C\[C@@H](C)C(=O)c1ccc(N(C)C)cc1` [trichostatin A]: the “anti-proliferative IC50” value in the data set on tumor cell lines was “low nM range”. Also, the IC50 (usually the concentration at which inhibition is half-maximal) in data set [8] (human coronary artery smooth muscle cells, read-out: anti-proliferative IC50) is around 6 nM. Besides, the “inhibition of human coronary artery smooth muscle cell proliferation” value in data set [8] (in vitro cell culture) was “completely inhibit”.
